Source: paper PMC6253875, “Synthesis and Evaluation of Non-peptidic Cysteine Protease Inhibitors of P. falciparum Derived from Etacrynic Acid” (Molecules, 2008)
Like-named read-outs stand apart in the source and are kept apart here.

Legend:
falcipain-2 = target: T1, falcipain-2 (Plasmodium falciparum, UniProt Q8I6U4); assay: Inhibition of recombinant falcipain-2, fluorometric microplate assay (Cbz-Phe-Arg-AMC); type: biochemical; conditions: recombinant falcipain-2, values marked ^a: only one experiment, ni = no inhibition; for IC50: read-out: FP-2 IC50
T1 construct: made in house; host or cells: E. coli
T1 sequence (Q8I6U4 244-484): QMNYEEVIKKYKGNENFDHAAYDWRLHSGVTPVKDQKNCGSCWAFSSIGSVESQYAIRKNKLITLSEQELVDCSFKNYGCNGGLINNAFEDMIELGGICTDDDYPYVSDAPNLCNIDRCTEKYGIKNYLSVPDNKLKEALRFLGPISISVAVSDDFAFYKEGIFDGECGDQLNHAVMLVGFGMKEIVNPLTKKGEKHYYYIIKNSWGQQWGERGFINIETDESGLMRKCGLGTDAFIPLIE
Protocol: (§1) Recombinant falcipain-2 and falcipain-3 were produced as previously described. Inhibitory activities against recombinant falcipain-2 and falcipain-3 were evaluated in fluorometric microplate assays using the substrates Cbz-Phe-Arg-AMC and Cbz-Leu-Arg-AMC (AMC, 7-amino-4-methyl-coumarin). The cysteine protease inhibitor E-64 was used as a positive control. The solvent DMSO was used as negative control. […] The in vitro data for the etacrynic acid derivatives are compared to those of the well known drug chloroquine and to E-64.
(§2) Falcipain-2 and falcipain-3 were recombinantly expressed in E. coli and refolded to active enzyme as previously described.
(§3) IC50 values for inhibition of falcipain-2 and falcipain-3 were determined as described previously using the fluorogenic substrates Cbz-Phe-Arg-AMC and Cbz-Leu-Arg-AMC, respectively (AMC, 7-amino-4 methylcoumarin). As a positive control the well-known cysteine protease inhibitor E-64 [7, 25, 26] and as a negative control the solvent (DMSO) was used. Dose-dependent effects of compounds on parasite development (P. falciparum strain W2) were quantified by flow cytometry according to a previously published method. First, a screening with inhibitor concentrations of […] was performed and the percentage activity of infected red blood cells (RBCs) relative to the negative control was determined. […] Chloroquine and E-64 were used as positive controls, and the solvent DMSO was used as a negative control. For selected compounds assays with the P. falciparum strain 3D7 were performed using a fluorometric assay with Hoechst-33258 [28], or the microculture tetrazolium test measuring parasite lactate dehydrogenase activity. The parasites were cultivated in vitro as described previously. Compounds were screened at concentrations between 1 nM and 100 μM. Synchronized ring stages were plated in 96-well plates at a parasitemia of 1%, in the presence of the compounds (dissolved in DMSO). Incubation of parasites with DMSO alone at a concentration of 0.5% v/v was used as a negative control. IC50 values were calculated by non-linear regression analyses using the programs GaphPad® Prism 4 and GraFit® [31, 32].

falcipain-3 = target: T2, falcipain-3 (Plasmodium falciparum, UniProt Q8IIL0); assay: Inhibition of recombinant falcipain-3, fluorometric microplate assay (Cbz-Leu-Arg-AMC); type: biochemical; conditions: recombinant falcipain-3, ni = no inhibition; for IC50: read-out: FP-3 IC50
T2 construct: made in house; host or cells: E. coli
T2 sequence (Q8IIL0 243-492): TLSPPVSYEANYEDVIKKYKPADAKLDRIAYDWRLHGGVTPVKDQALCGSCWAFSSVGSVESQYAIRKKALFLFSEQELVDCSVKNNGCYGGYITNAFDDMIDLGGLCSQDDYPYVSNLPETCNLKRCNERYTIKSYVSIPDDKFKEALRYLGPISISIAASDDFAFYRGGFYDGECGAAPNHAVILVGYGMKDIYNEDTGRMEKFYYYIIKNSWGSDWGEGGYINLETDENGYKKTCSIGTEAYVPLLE
Protocol: as §1, §2, §3

P. falciparum strain W2 [1] = assay: Antiplasmodial activity in vitro, parasite development quantified by flow cytometry; type: cell-based, Plasmodium falciparum; conditions: W2 strain (CQ-resistant), ni = no inhibition; for IC50: read-out: P. f. 3D7/W2, IC50
Protocol: as §3

[2] = In vitro cytotoxicity assay; type: cell-based; conditions: human, 293T human kidney epithelium cells; 293T cells
Protocol: Recombinant falcipain-2 and falcipain-3 were produced as previously described. […] The cysteine protease inhibitor E-64 was used as a positive control. The solvent DMSO was used as negative control. […] For the experimental procedures, cells were detached from the flasks with a rubber policeman, washed twice with PBS (phosphate-buffer saline) containing 1 mL trypsin-EDTA (1 x), and suspended at 2 x 10^6 cells mL^-1 in complete medium. Inhibitor assays were carried out as described elsewhere except that the cell concentration used in this study was 2 x 10^4 mL^-1 well^-1 [33].

P. falciparum strain 3D7 = assay: Antiplasmodial activity in vitro, Hoechst-33258 fluorometric assay or parasite lactate dehydrogenase test; type: cell-based; conditions: Plasmodium falciparum
Protocol: as §1, §3

P. falciparum strain W2 [3] = conditions: read-out: P. f. 3D7/W2, IC50; cited from earlier work
[4] = 3D7 strain (CQ-sensitive), read-out: P. f. 3D7/W2, IC50

| IC50 (falcipain-2) [µM] | IC50 (falcipain-3) [µM] | P. f. 3D7/W2, IC50 (P. falciparum strain W2 [1]) | Structure (SMILES) | other results |
| --- | --- | --- | --- | --- |
| 57.1 ± 13 | 96.5 ± 0.6 | – | C=C(CC)C(=O)c1ccc(OCC(=O)NCCCCCC(=O)O)c(Cl)c1Cl [Compound 23, 6-{2-[2,3-Dichloro-4-(2-methylene-butyryl)-phenoxy]acetylamino}-hexanoic acid] | IC50 (P. falciparum strain W2 [1]; Plasmodium falciparum, 3D7 / W2): 18.8 ± 0.9 µM; IC50 [2]: > 160 µM |
| 80 ± 5 | – | – | C=C(CC)C(=O)c1ccc(OCC(=O)NC(C)(C)C)c(F)c1 [Compound 5, N-tert-butyl-2-(2-fluoro-4-(2-methylenebutanoyl)phenoxy)acetamide] | IC50 (P. falciparum strain 3D7; [4]): 205 ± 9 µM |
| – | – | – | C=C(CC)C(=O)c1ccc(OCC(=O)NCCCC)c(F)c1 [Compound 6, N-butyl-2-(2-fluoro-4-(2-methylenebutanoyl)phenoxy)acetamide] | FP-2 IC50 (falcipain-2): ni; melting point: 73 °C; IC50 (P. falciparum strain 3D7; [4]): 141 ± 4 µM |
| – | – | – | C=C(CC)C(=O)c1ccc(OCC(=O)O)c(F)c1 [Compound 4, 2-(2-fluoro-4-(2-methylenebutanoyl)phenoxy)acetic acid] | IC50 (P. falciparum strain 3D7; [4]): 79.8 ± 6 µM |
| – | – | – | CCN(CC)CCCC(C)Nc1ccnc2cc(Cl)ccc12 (centres unmarked) [CQ, chloroquine, reference compound] | IC50 (P. falciparum strain W2 [3]): 0.24 µM; IC50 (P. falciparum strain 3D7; 3D7, read-out: P. f. 3D7/W2, IC50): 0.01 ± 0.0048 µM |
| 713 | – | ni^c | CCCCNC(=O)COc1ccc(C(=O)CCC)c(Cl)c1Cl [Compound 27, N-butyl-2-(4-butyryl-2,3-dichloro-phenoxy)-acetamide] | FP-3 IC50 (falcipain-3): ni |
| 333 ± 5 | 158 ± 11 | ni^c | C=C(CC)C(=O)c1ccc(OCC(=O)NCc2ccccc2)c(Cl)c1Cl [Compound 11] | – |
| 184 ± 17 | 158 ± 17 | nic | C=C(CC)C(=O)c1ccc(OCC(=O)NCCCC)c(Cl)c1Cl [Compound 20] | – |
| 498 ± 8 | 346 ± 14 | ni^c | C=C(CC)C(=O)c1ccc(OCC(=O)OCC)c(Cl)c1 [Compound 1] | – |
| 269 ± 21 | 87.2 ± 6 | nic | C=C(CC)C(=O)c1ccc(OCC(=O)Nc2ccccc2)c(Cl)c1Cl [Compound 13] | – |
| – | – | – | C=C(CC)C(=O)c1ccc(OCC(=O)OC(C)(C)C)c(F)c1 [Compound 3, Tert-butyl 2-(2-fluoro-4-(2-methylenebutanoyl)phenoxy)acetate] | FP-2 IC50 (falcipain-2): ni; IC50 (P. falciparum strain 3D7; [4]): 142 ± 5 µM |
| 255 ± 4 | 153 ± 16 | nic | C=C(CC)C(=O)c1ccc(OCC(=O)NC(C)(C)C)c(Cl)c1Cl [Compound 18] | – |
| 484 | – | ni^c | CCCC(=O)c1ccc(OCC(=O)NC(C)(C)C)c(Cl)c1Cl [Compound 26, N-tert-butyl-2-(4-butyryl-2,3-dichloro-phenoxy)-acetamide] | FP-3 IC50 (falcipain-3): ni |

| Structure (SMILES) | IC50 (falcipain-2) [µM] | IC50 (falcipain-3) [µM] | P. f. 3D7/W2, IC50 (P. falciparum strain W2 [1]) | other results |
| --- | --- | --- | --- | --- |
| CC(C)C[C@H](NC(=O)[C@H]1O[C@@H]1C(=O)O)C(=O)NCCCCN=C(N)N [E-64, reference compound] | 0.015 ± 0.008 | 0.075 ± 0.02 | – | IC50 (P. falciparum strain W2 [1]): 5.3 ± 1.05 µM |
